Measurements from PubChem BioAssay AID330 (DTP/NCI, 2004).
“And” between values parts separate entries of the source, which are not always exact repeats. Equal values may be shown once. Toxic doses and inconclusive results are not listed. Peptide text beside a SMILES is read from it. * marks the point of attachment. Boc = CC(C)(C)OC(=O)*; NHNH2 = NN*

Test system: P388 leukemia ip, CD2F1 mice, survival T/C
Test: NCI In Vivo Anticancer Drug Screen. Data for tumor model P388 Leukemia (intraperitoneal) in CD2F1 (CDF1) mice
Details: endpoint: median survival time, higher = longer survival
Summary of the method: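 Mice carrying the transplanted tumor received test compound or vehicle. Survival was recorded in each group, and the value is the treated-group measurement divided by that of the vehicle-treated control group.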

[1] = dose: 50.0 mg/kg/injection, schedule: Q01DX005 (ip), vehicle: Klucel (hydroxypropylcellulose) (HPC)
[2] = dose: 100.0 mg/kg/injection, schedule: Q01DX005 (ip), vehicle: Klucel (hydroxypropylcellulose) (HPC)
[3] = dose: 200.0 mg/kg/injection, schedule: Q01DX005 (ip), vehicle: Klucel (hydroxypropylcellulose) (HPC)
[4] = dose: 6.25 mg/kg/injection, schedule: Q01DX009 (ip), vehicle: saline
[5] = dose: 25.0 mg/kg/injection, schedule: Q01DX009 (ip), vehicle: saline

Structure (SMILES): CN(C)CCC(CCc1ccccc1)OC(=O)c1ccc([N+](=O)[O-])cc1 (configuration not stated)
- T/C (dose: 50.0 mg/kg/injection, schedule: Q04DX002 (ip), vehicle: saline): 102 % of control
- T/C (dose: 100.0 mg/kg/injection, schedule: Q04DX002 (ip), vehicle: saline): 107 % of control

Structure (SMILES): CS(C)=Nc1ccc(Cl)cc1
- T/C (dose: 100.0 mg/kg/injection, schedule: Q01DX001 (ip), vehicle: saline): 109 % of control

Structure (SMILES): Cn1c2ccccc2c2ccc3c(c21)C(=O)C=CC3=O
- T/C (dose: 25.0 mg/kg/injection, schedule: Q01DX009 (ip), vehicle: distilled water + Tween-80): 120 % of control

Structure (SMILES): CN(C)NC(=O)[S-].CN(C)NC(=O)[S-].[Ni]
- T/C (dose: 12.5 mg/kg/injection, schedule: Q01DX001 (ip), vehicle: saline with Tween-80): 103 % of control
- T/C (dose: 25.0 mg/kg/injection, schedule: Q01DX001 (ip), vehicle: saline with Tween-80): 111 % of control
- T/C (dose: 50.0 mg/kg/injection, schedule: Q01DX001 (ip), vehicle: saline with Tween-80): 106 % of control and 96 % of control
- T/C (dose: 100.0 mg/kg/injection, schedule: Q01DX001 (ip), vehicle: saline with Tween-80): 109 % of control

Structure (SMILES): COc1ccc(NC(=O)Nc2nc3c(C)cccc3s2)cc1
- T/C [1]: 101 % of control
- T/C [2]: 98 % of control
- T/C [3]: 93 % of control

Structure (SMILES): S=c1[nH]c(Cl)c(Cl)cc1Cl
- T/C (dose: 50.0 mg/kg/injection, schedule: Q01DX009 (ip), vehicle: saline with Tween-80): 98 % of control
- T/C (dose: 100.0 mg/kg/injection, schedule: Q01DX009 (ip), vehicle: saline with Tween-80): 105 % of control
- T/C (dose: 200.0 mg/kg/injection, schedule: Q01DX009 (ip), vehicle: saline with Tween-80): 99 % of control

Structure (SMILES): O=C(CBr)Nc1ncc([N+](=O)[O-])s1
- T/C (dose: 6.25 mg/kg/injection, schedule: Q01DX009 (ip), vehicle: Klucel (hydroxypropylcellulose) (HPC)): 102 % of control
- T/C (dose: 12.5 mg/kg/injection, schedule: Q01DX009 (ip), vehicle: Klucel (hydroxypropylcellulose) (HPC)): 104 % of control

Structure (SMILES): Cl/N=C1/C=CC=C/C1=N/Cl
- T/C (dose: 50.0 mg/kg/injection, schedule: Q01DX005 (ip), vehicle: saline): 106 % of control
- T/C (dose: 100.0 mg/kg/injection, schedule: Q01DX005 (ip), vehicle: saline): 104 % of control
- T/C (dose: 200.0 mg/kg/injection, schedule: Q01DX005 (ip), vehicle: saline): 101 % of control

Structure (SMILES): NOCCCCCON
- T/C (dose: 50.0 mg/kg/injection, schedule: Q01DX009 (ip), vehicle: Klucel (hydroxypropylcellulose) (HPC)): 100 % of control
- T/C (dose: 100.0 mg/kg/injection, schedule: Q01DX009 (ip), vehicle: Klucel (hydroxypropylcellulose) (HPC)): 106 % of control

Structure (SMILES): CCC(C)P(=O)(N1CC1)N1CC1 (configuration not stated)
- T/C [4]: 109 % of control
- T/C (dose: 6.25 mg/kg/injection, schedule: Q04DX003 (ip), vehicle: saline): 113 % of control
- T/C [5]: 154 % of control
- T/C (dose: 25.0 mg/kg/injection, schedule: Q04DX003 (ip), vehicle: saline): 190 % of control

Structure (SMILES): CC(NC(=O)C1CCCN1C(=O)OC(C)(C)C)C(=O)OCc1ccccc1 (configuration not stated)
- T/C (dose: 50.0 mg/kg/injection, schedule: Q01DX005 (ip), vehicle: saline + Tween-80 + alcohol): 98 % of control
- T/C (dose: 100.0 mg/kg/injection, schedule: Q01DX005 (ip), vehicle: saline + Tween-80 + alcohol): 98 % of control
- T/C (dose: 200.0 mg/kg/injection, schedule: Q01DX005 (ip), vehicle: saline + Tween-80 + alcohol): 99 % of control

Structure (SMILES): O=C(O)c1c(O)ccc(O)c1C(=O)O
- T/C (dose: 60.0 mg/kg/injection, schedule: Q01DX005 (ip), vehicle: saline with Tween-80): 101 % of control
- T/C (dose: 120.0 mg/kg/injection, schedule: Q01DX005 (ip), vehicle: saline with Tween-80): 92 % of control
- T/C (dose: 240.0 mg/kg/injection, schedule: Q01DX005 (ip), vehicle: saline with Tween-80): 97 % of control

Structure (SMILES): CCc1c(O)c(C(C)=O)c(S)[nH]c1=O
- T/C (dose: 60.0 mg/kg/injection, schedule: Q01DX005 (ip), vehicle: Klucel (hydroxypropylcellulose) (HPC)): 101 % of control and 88 % of control
- T/C (dose: 120.0 mg/kg/injection, schedule: Q01DX005 (ip), vehicle: Klucel (hydroxypropylcellulose) (HPC)): 102 % of control
- T/C (dose: 240.0 mg/kg/injection, schedule: Q01DX005 (ip), vehicle: Klucel (hydroxypropylcellulose) (HPC)): 114 % of control and 87 % of control

Structure (SMILES): C=CCC(=C)C(=O)OC
- T/C (dose: 12.5 mg/kg/injection, schedule: Q01DX009 (ip), vehicle: water): 103 % of control
- T/C (dose: 25.0 mg/kg/injection, schedule: Q01DX009 (ip), vehicle: water): 104 % of control
- T/C (dose: 50.0 mg/kg/injection, schedule: Q01DX009 (ip), vehicle: water): 102 % of control
- T/C (dose: 100.0 mg/kg/injection, schedule: Q01DX009 (ip), vehicle: water): 102 % of control
- T/C (dose: 200.0 mg/kg/injection, schedule: Q01DX009 (ip), vehicle: water): 103 % of control

Structure (SMILES): CN(CC(=O)O)N=Nc1ccc(C(N)=O)cc1
- T/C [1]: 100 % of control
- T/C [2]: 96 % of control
- T/C [3]: 100 % of control

Structure (SMILES): Cc1cn(O)c(=N)c(C(N)=O)n1
- T/C (dose: 37.5 mg/kg/injection, schedule: Q01DX009 (ip), vehicle: saline with Tween-80): 90 % of control
- T/C (dose: 75.0 mg/kg/injection, schedule: Q01DX009 (ip), vehicle: saline with Tween-80): 100 % of control
- T/C (dose: 150.0 mg/kg/injection, schedule: Q01DX009 (ip), vehicle: saline with Tween-80): 107 % of control

Structure (SMILES): Cc1c(C(=O)O)c(O)cc2c1C(=O)c1c(O)c(C3OC(CO)C(O)C(O)C3O)c(O)c(O)c1C2=O (configuration not stated)
- T/C (dose: 0.12 mg/kg/injection, schedule: Q01DX009 (ip), vehicle: saline): 108 % of control
- T/C (dose: 0.25 mg/kg/injection, schedule: Q01DX009 (ip), vehicle: saline): 104 % of control
- T/C (dose: 0.5 mg/kg/injection, schedule: Q01DX009 (ip), vehicle: saline): 110 % of control
- T/C (dose: 1.0 mg/kg/injection, schedule: Q01DX009 (ip), vehicle: saline): 103 % of control
- T/C (dose: 2.0 mg/kg/injection, schedule: Q01DX009 (ip), vehicle: saline): 101 % of control

Structure (SMILES): CC1OC=CC(OC2OC(CO)C(O)C(O)C2O)C1O (configuration not stated)
- T/C (dose: 21.25 mg/kg/injection, schedule: Q01DX005 (ip), vehicle: saline): 109 % of control
- T/C (dose: 42.5 mg/kg/injection, schedule: Q01DX005 (ip), vehicle: saline): 116 % of control
- T/C (dose: 85.0 mg/kg/injection, schedule: Q01DX005 (ip), vehicle: saline): 108 % of control
- T/C (dose: 170.0 mg/kg/injection, schedule: Q01DX005 (ip), vehicle: saline): 101 % of control

Structure (SMILES): O=NN(CCCl)C(=O)Nc1ccccc1
- T/C (dose: 0.5 mg/kg/injection, schedule: Q04DX003 (ip), vehicle: saline with Tween-80): 200 % of control
- T/C (dose: 1.25 mg/kg/injection, schedule: Q04DX003 (ip), vehicle: saline with Tween-80): 150 % of control
- T/C (dose: 2.5 mg/kg/injection, schedule: Q04DX003 (ip), vehicle: saline with Tween-80): 179 % of control
- T/C (dose: 5.0 mg/kg/injection, schedule: Q04DX003 (ip), vehicle: saline with Tween-80): 233 % of control
- T/C [4]: 227 % of control
- T/C (dose: 12.5 mg/kg/injection, schedule: Q01DX009 (ip), vehicle: saline): 118 % of control
- T/C (dose: 12.5 mg/kg/injection, schedule: Q04DX003 (ip), vehicle: saline with Tween-80): 250 % of control
- T/C [5]: 95 % of control
- T/C (dose: 25.0 mg/kg/injection, schedule: Q04DX003 (ip), vehicle: saline with Tween-80): 91 % of control

Structure (SMILES): O=C1OCN2C(=O)CCC12 (configuration not stated)
- T/C (dose: 60.0 mg/kg/injection, schedule: Q01DX005 (ip), vehicle: saline): 109 % of control
- T/C (dose: 120.0 mg/kg/injection, schedule: Q01DX005 (ip), vehicle: saline): 97 % of control
- T/C (dose: 240.0 mg/kg/injection, schedule: Q01DX005 (ip), vehicle: saline): 86 % of control

Structure (SMILES): O=C1CSc2nc3c(I)cc(I)cc3c(=O)n21
- T/C [1]: 101 % of control
- T/C [2]: 100 % of control
- T/C [3]: 98 % of control

Structure (SMILES): CCCCCCCC(=O)Nc1nnc(SCCCCCCCCCCSc2nnc(NC(=O)CCCCCCC)s2)s1
- T/C (dose: 50.0 mg/kg/injection, schedule: Q01DX005 (ip), vehicle: Klucel + Tween-80): 90 % of control
- T/C (dose: 100.0 mg/kg/injection, schedule: Q01DX005 (ip), vehicle: Klucel + Tween-80): 87 % of control
- T/C (dose: 200.0 mg/kg/injection, schedule: Q01DX005 (ip), vehicle: Klucel + Tween-80): 90 % of control

Structure (SMILES): CC(NC(=O)C(Cc1c[nH]c2ccccc12)NC(=O)OC(C)(C)C)C(=O)NN (stereo not drawn) (Boc-Trp-Ala-NHNH2; configuration not given here)
- T/C (dose: 12.5 mg/kg/injection, schedule: Q01DX009 (ip), vehicle: other): 98 % of control
- T/C (dose: 25.0 mg/kg/injection, schedule: Q01DX009 (ip), vehicle: other): 100 % of control
- T/C (dose: 50.0 mg/kg/injection, schedule: Q01DX009 (ip), vehicle: other): 105 % of control
- T/C (dose: 100.0 mg/kg/injection, schedule: Q01DX009 (ip), vehicle: other): 109 % of control
- T/C (dose: 200.0 mg/kg/injection, schedule: Q01DX009 (ip), vehicle: other): 119 % of control
